From PubChem BioAssay (NCI)
Values joined by “and” are separate entries in the source; they are usually repeats but may differ in a detail not shown here. Equal values may be shown once.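 Cells were grown in 96-well plates and exposed to each compound for 48 hours at five concentrations; endpoints were interpolated linearly between bracketing concentrations, or set to the highest concentration if not reached. GI50 is the concentration that inhibits growth by half. TGI: total growth inhibition.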

How the values were obtained:
Test in all cases: NCI-60 cell line screen, 48 h
[1] = test system: KM12 colon
[2] = test system: CCRF-CEM leukemia
[3] = test system: HCT-15 colon
[4] = test system: TK-10 renal
[5] = test system: HCT-116 colon
[6] = test system: MALME-3M melanoma
[7] = test system: UACC-257 melanoma
[8] = test system: UACC-62 melanoma
[9] = test system: NCI-H226 lung
[10] = test system: HCC-2998 colon

Structure (SMILES)	GI50 [1]	TGI [1]	GI50 [2]	TGI [2]	GI50 [3]	TGI [3]	GI50 [4]	TGI [4]	GI50 [5]	TGI [5]	GI50 [6]	TGI [6]	GI50 [7]	TGI [7]	GI50 [8]	TGI [8]	GI50 [9]	TGI [9]	GI50 [10]	TGI [10]
O=C(C[C@@H](C(=O)NCc1cccc(C(F)(F)F)c1)N1C(=O)[C@@H](N2C(=O)OC[C@@H]2c2ccccc2)[C@H]1/C=C/c1ccccc1)NC1CCN(Cc2ccccc2)CC1	3.93 µM	16.7 µM	2.79 µM	7.84 µM	10.9 µM	35.2 µM	10.2 µM	23.4 µM	1.95 µM	4.04 µM	2.78 µM	7.39 µM	17.2 µM	33.8 µM	3.34 µM	13.8 µM	48.2 µM	> 100 µM	6.2 µM	21.2 µM
CC(=O)[O][Hg][c]1c(C)c(C)c(C)c(C)c1C	4.06 µM	15.3 µM	0.895 µM	9.71 µM	1.38 µM	2.93 µM	2.03 µM	3.72 µM	3.38 µM	11.8 µM	1.24 µM	2.62 µM	1.73 µM	3.45 µM	0.856 µM	2.95 µM	3.65 µM	10 µM	1.53 µM	3.2 µM
O=C(O)c1cc(N=Nc2ccc([As](=O)(O)O)cc2)ccc1O		> 100 µM		> 100 µM		> 100 µM		> 100 µM		> 100 µM		> 100 µM		> 100 µM		> 100 µM		> 100 µM		> 100 µM
COC(=O)[C@]12CCC(C)(C)C[C@H]1C1=CC[C@@H]3[C@@]4(C)C/C(=C/c5cccnc5)C(=O)C(C)(C)[C@@H]4CC[C@@]3(C)[C@]1(C)CC2	5.06 µM	19.9 µM	2.81 µM	13.7 µM	4.58 µM	30.5 µM	21.4 µM	55.5 µM	2.71 µM	12.1 µM	5.24 µM	18.2 µM	12.5 µM	42.8 µM	2.89 µM	12.8 µM	3.97 µM	17.9 µM	5.56 µM	19.5 µM
CCOC(=O)NC(=O)c1cn(CCCOC(=O)NCCCCCCNC(=O)OCCCn2c(=O)c(C(=O)NC(=O)OCC)cn(C)c2=O)c(=O)n(C)c1=O		> 100 µM		> 100 µM		> 100 µM		> 100 µM		> 100 µM		> 100 µM		> 100 µM		> 100 µM		> 100 µM		> 100 µM
NCCCCn1c2c(c3ccccc3c1=O)C(=O)c1ccccc1-2	0.188 µM	0.678 µM	0.0195 µM	1.6 µM	0.0582 µM	0.412 µM	0.226 µM	1.25 µM	0.092 µM	1.76 µM	0.311 µM	1.12 µM	0.619 µM	1.91 µM	0.0467 µM	0.422 µM	0.107 µM	0.458 µM	0.484 µM	1.92 µM
C#CC[C@]12CC(=O)CC[C@H]1CC(=O)C2		> 100 µM		> 100 µM		> 100 µM		> 100 µM		> 100 µM		> 100 µM		> 100 µM		> 100 µM		> 100 µM		> 100 µM
Cc1cc(C2CCCCC2)n(O)c(=O)c1	2.53 µM	> 100 µM		74.5 µM	0.655 µM	> 100 µM and 38.1 µM	9.91 µM	> 100 µM	1.02 µM	> 100 µM	2.66 µM	> 100 µM and 49.4 µM	2.6 µM	21.9 µM and 8.45 µM	0.873 µM	8.85 µM and 18.6 µM	2.2 µM	> 100 µM	2.94 µM	> 100 µM and 35.5 µM
O=C(NC1CCCCCC1)C1C(=O)N(C2CCCCCC2)C(=O)/C1=N\O (centres undefined)		> 100 µM		87.2 µM		> 100 µM		94.3 µM		31.8 µM		68.5 µM		> 100 µM		48.6 µM		> 100 µM		40.2 µM
N#Cc1cnsc1		> 100 µM		> 100 µM		> 100 µM		> 100 µM		> 100 µM		> 100 µM		> 100 µM		> 100 µM		> 100 µM		> 100 µM
Nc1nccc(-c2c(-c3ccc(F)cc3)ncn2CCCN2CCOCC2)n1	> 25 µM	> 25 µM	> 25 µM	> 25 µM	> 25 µM	> 25 µM	> 25 µM	> 25 µM	> 25 µM	> 25 µM	> 25 µM	> 25 µM	> 25 µM	> 25 µM	> 25 µM	> 25 µM	> 25 µM	> 25 µM	> 25 µM	> 25 µM
CCCCNC(=O)NS(=O)(=O)c1ccc(N2N=C(c3ccc(C)cc3C)CC2c2ccc(N(C)C)cc2)cc1 (centres undefined)	3.72 µM	> 100 µM	3.32 µM	46.7 µM	3.09 µM	> 100 µM	5.64 µM	> 100 µM	3.86 µM	> 100 µM	3.08 µM	41.7 µM	4.04 µM	> 100 µM	2.18 µM	6.12 µM	4.54 µM	21.8 µM	2.25 µM	5.1 µM
O=C(/C=C/c1ccccc1Cl)c1ccccc1Cl		29.3 µM		44.9 µM		28 µM		> 100 µM		28.5 µM		69.4 µM		60.4 µM		36.7 µM		> 100 µM		39.1 µM
COc1ccc(/C(=N/Nc2ccc([N+](=O)[O-])cc2)Sc2cc(Cl)c(C)cc2S(N)(=O)=O)cc1	3.22 µM	9.96 µM	6.45 µM	33.9 µM	7.25 µM	> 40.8 µM	2.47 µM	6.73 µM	2.31 µM	5.48 µM	3.13 µM	10.1 µM	13 µM	26.4 µM	3.02 µM	8.54 µM	3.52 µM	9.63 µM	4.29 µM	8.75 µM
